Values quoted from earlier work in patent US20100076052A1, “PERINDOPRIL FORMULATIONS” (priority 2008, published 2010).

In the case of `CCCC(N[C@@H](C)C(=O)N1[C@H](C(=O)O)C[C@@H]2CCCC[C@@H]21)C(=O)OCC` (stereo partly drawn) [Perindopril erbumine, (2S,3αS,7αS)-1-[(S)—N—[(S)-1-carboxybutyl]alanyl]hexahydro-2-indolinecarboxylic acid, 1-ethyl ester, compound with t-butylamine (1:1)], the solubility in alcohol (alcohol) is given as “freely soluble”, the solubility in chloroform (chloroform) is given as “freely soluble” and the solubility in water (water) is given as 60 % w/w.
